Assays:
human PPARα = molecular target: T1, human PPARα (Homo sapiens, UniProt Q07869); test: PPARα assay: PPRE-dependent transcriptional activation activity (luciferase reporter in COS-1 cells transfected with PPARα and RXRα); type: cell-based; settings: COS-1 cells transfected with PPARα and RXRα expression vectors and pGL3-PPRE4-Tk; about 42 hours incubation with compound; compound-free group = 100%
T1 construct: expressed in transfected cells; host or cells: COS-1 cells
T1 sequence (Q07869 1-468): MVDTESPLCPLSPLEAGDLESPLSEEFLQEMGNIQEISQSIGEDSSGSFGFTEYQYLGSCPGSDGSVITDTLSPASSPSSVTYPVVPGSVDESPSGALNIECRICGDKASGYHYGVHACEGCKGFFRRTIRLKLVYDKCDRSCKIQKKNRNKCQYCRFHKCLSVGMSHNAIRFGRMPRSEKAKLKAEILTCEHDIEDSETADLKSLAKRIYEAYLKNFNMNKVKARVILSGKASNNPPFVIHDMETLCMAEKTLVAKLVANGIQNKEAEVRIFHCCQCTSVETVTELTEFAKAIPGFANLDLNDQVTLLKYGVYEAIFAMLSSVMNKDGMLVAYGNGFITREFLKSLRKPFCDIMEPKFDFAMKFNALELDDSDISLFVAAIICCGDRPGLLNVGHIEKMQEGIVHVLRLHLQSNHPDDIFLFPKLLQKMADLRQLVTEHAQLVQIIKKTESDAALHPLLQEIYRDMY
T1 sequence (P19793 1-462 partner): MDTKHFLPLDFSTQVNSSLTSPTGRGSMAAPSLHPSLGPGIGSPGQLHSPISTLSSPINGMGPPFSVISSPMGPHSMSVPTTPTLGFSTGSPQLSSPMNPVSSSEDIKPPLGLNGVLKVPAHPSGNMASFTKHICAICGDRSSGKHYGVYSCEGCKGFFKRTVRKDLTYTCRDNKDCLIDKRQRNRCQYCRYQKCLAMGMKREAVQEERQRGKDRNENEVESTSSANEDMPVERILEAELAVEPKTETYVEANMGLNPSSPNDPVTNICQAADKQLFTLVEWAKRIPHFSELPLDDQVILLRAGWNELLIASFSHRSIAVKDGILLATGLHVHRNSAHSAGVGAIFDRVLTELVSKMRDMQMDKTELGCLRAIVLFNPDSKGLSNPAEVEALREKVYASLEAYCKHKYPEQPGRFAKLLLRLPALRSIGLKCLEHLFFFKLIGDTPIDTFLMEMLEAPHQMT
Protocol: COS-1 cells were suspended in Dulbecco's Modified Eagle Medium (10% FBS, D-MEM) supplemented with 10% heat-inactivated fetal calf serum to 1×10^5 cells/ml and a 25 ml aliquot was seeded on a 75 cm^2 cell culture flask, followed by incubation in 5% CO2 at 37° C. for about 15 hours. PPARα expression vector pMCMV-neo-rPPARα and RXRα expression vector pMCMV-neo-rRXRα, in which human PPARα gene and human RXRα gene were inserted into pMCMV-neo (manufactured by Promega Corp.) respectively, and Luciferase reporter vector pGL3-PPRE4-Tk, in which four PPREs (aggacaaaggtca; SEQ ID NO: 2) were inserted into pGL3-Promoter Vector (manufactured by Promega Corp.) in tandem, were transfected to the cells using FuGENE6 (Transfection reagent: manufactured by Roche), and then incubation for about 24 hours. After completion of the incubation, the cells were recovered and suspended in 0.1% bovine serum albumin (Sigma)-containing D-MEM to 5×10^4 cells/ml. A 100 μl aliquot was seeded on each well of a 96-well plate, followed by incubation in 5% CO2 at 37° C. for about 4 hours. Next, D-MEM containing a test compound (compound obtained in EXAMPLE 2, 8, 10 or 12) was added thereto, followed by incubation in 5% CO2 at 37° C. for about 42 hours. After completion of the incubation, a 801 aliquot was added to each well of Steady-Glo Reagent (manufactured by Promega Corp.). After allowing to stand for 30 minutes at room temperature, fluorescence levels by luciferase were determined using a WALLAC ARVO SX (manufactured by Perkin-Elmer). Taking the emitted luminescence of test compound-free group as 100%, the PPRE-dependent transcriptional activation was shown in terms of the concentration of test compound, which caused to emit the luminescence of 200% (EC200: μM).

[1] = system: ARE of rat glutathione S-transferase Ya subunit gene; test: Assay for ARE-dependent transcriptional activation activity (luciferase reporter pGL3-ARE in rat H9c2 cells); type: cell-based; settings: rat H9c2 cells transfected with pGL3-ARE; about 24 hours incubation with compound; compound-free group = 100%
Protocol: Rat H9c2 cells were suspended in Dulbecco's Modified Eagle Medium (10% FBS, D-MEM) supplemented with 5% heat-inactivated fetal calf serum to 7×10^4 cells/ml and a 18 ml aliquot was seeded on a Petri dish for cell culture, followed by incubation in 5% CO2 at 37° C. for about 16 hours. ARE ([…]; SEQ ID NO: 1) of rat glutathione S-transferase Ya subunit gene was incorporated into pGL3-Promoter Vector (manufactured by Promega Corp.) and the resulting luciferase reporter vector pGL3-ARE was transfected to the cells using FuGENE6 (Transfection reagent: manufactured by Roche), followed by additional incubation for about 7 hours. After completion of the incubation, the cells were recovered and suspended in 10% FBS-containing D-MEM to 1×10^5 cells/ml. A 100 μl aliquot was seeded on each well of a 96-well plate, followed by incubation in 5% CO2 at 37° C. for about 17 hours. Next, the cells were washed with D-MEM to remove serum, and D-MEM containing a test compound (compound obtained in EXAMPLE 2, 8, 10, 12, 22 or 23) was added to the cells, followed by incubation in 5% CO2 at 37° C. for about 24 hours. After completion of the incubation, 801 each of Steady-Glo Reagent (manufactured by Promega Corp.) was added to each well. After allowing to stand at room temperature for 40 minutes, fluorescence levels by luciferase were determined using a WALLAC ARVO SX (manufactured by Perkin-Elmer). Taking the emitted luminescence of test compound-free group as 100%, the ARE-dependent transcriptional activation was shown in terms of the concentration of test compound, which caused to emit the luminescence of 200% (EC200: μM).

Compound	EC200 (concentration of test compound causing luminescence of 200% of the test compound-free group), PPRE-dependent transcriptional activation (human PPARα) [µM]	melting point [°C]	EC200 (concentration of test compound causing luminescence of 200% of the test compound-free group), ARE-dependent transcriptional activation [1] [µM]
CS(=O)(=O)c1cc(CCC(=O)O)nc(-c2nc(=O)c3ccc(Cl)cc3s2)c1 [EXAMPLE 8, 3-[6-(7-Chloro-4-oxo-4H-1,3-benzothiazin-2-yl)-4-(methylsulfonyl)pyridin-2-yl]propanoic acid]	>100	228.8 to 228.9	0.94
CS(=O)(=O)c1cc(CCC(=O)O)nc(-c2nc(=O)c3ccc(F)cc3s2)c1 [EXAMPLE 10, 3-[6-(7-fluoro-4-oxo-4H-1,3-benzothiazin-2-yl)-4-(methylsulfonyl)pyridin-2-yl]propanoic acid]	>100	235.8 to 236.2	1.7
CCOC(=O)CCc1cc(S(C)(=O)=O)cc(-c2nc(=O)c3ccc(Cl)cc3s2)n1 [EXAMPLE 13, Ethyl 3-[6-(7-chloro-4-oxo-4H-1,3-benzothiazin-2-yl)-4-(methylsulfonyl)pyridin-2-yl]propanoate]	–	240 to 240.2	–
CCN(CC)CCOC(=O)CCc1cc(S(C)(=O)=O)cc(-c2nc(=O)c3ccc(Cl)cc3s2)n1 [EXAMPLE 22, 2-(Diethylamino)ethyl 3-[6-(7-chloro-4-oxo-4H-1,3-benzothiazin-2-yl)-4-(methylsulfonyl)pyridin-2-yl]propanoate]	–	150.5 to 151.5	0.61
CCN(CC)C(=O)COC(=O)CCc1cc(S(C)(=O)=O)cc(-c2nc(=O)c3ccc(Cl)cc3s2)n1 [EXAMPLE 23, 2-(Diethylamino)-2-oxoethyl 3-[6-(7-chloro-4-oxo-4H-1,3-benzothiazin-2-yl)-4-(methylsulfonyl)pyridin-2-yl]propanoate]	–	–	0.6
CC(C)(C)OC(=O)CCc1cc(S(C)(=O)=O)cc(-c2nc(=O)c3ccc(Cl)cc3s2)n1 [compound 7, Tert-butyl 3-[6-(7-chloro-4-oxo-4H-1,3-benzothiazin-2-yl)-4-(methylsulfonyl)pyridin-2-yl]propanoate]	–	184.3 to 184.5	–
CC(C)(C)OC(=O)CCc1cc(S(C)(=O)=O)cc(-c2nc(=O)c3ccc(F)cc3s2)n1 [compound 9, Tert-butyl 3-[6-(7-fluoro-4-oxo-4H-1,3-benzothiazin-2-yl)-4-(methylsulfonyl)pyridin-2-yl]propanoate]	–	177.6 to 178	–
Cc1ccc2c(=O)nc(-c3cc(S(C)(=O)=O)cc(CCC(=O)OC(C)(C)C)n3)sc2c1 [compound 11, Tert-butyl 3-[6-(7-methyl-4-oxo-4H-1,3-benzothiazin-2-yl)-4-(methylsulfonyl)pyridin-2-yl]propanoate]	–	178 to 178.4	–
CCCOC(=O)CCc1cc(S(C)(=O)=O)cc(-c2nc(=O)c3ccc(Cl)cc3s2)n1 [compound 19, Propyl 3-[6-(7-chloro-4-oxo-4H-1,3-benzothiazin-2-yl)-4-(methylsulfonyl)pyridin-2-yl]propanoate]	–	235.4 to 235.5	–

The next lines start with results.

EC200 (concentration of test compound causing luminescence of 200% of the test compound-free group), PPRE-dependent transcriptional activation (human PPARα) [µM]	melting point [°C]	Compound	EC200 (concentration of test compound causing luminescence of 200% of the test compound-free group), ARE-dependent transcriptional activation [1] [µM]
>100	–	CS(=O)(=O)c1cc(CCC(=O)O)nc(-c2nc(=O)c3ccccc3s2)c1 [EXAMPLE 2, 3-[6-(4-Oxo-4H-1,3-benzothiazin-2-yl)-4-(methylsulfonyl)pyridin-2-yl]propanoic acid]	1.3
>100	238.9 to 239.1	Cc1ccc2c(=O)nc(-c3cc(S(C)(=O)=O)cc(CCC(=O)O)n3)sc2c1 [EXAMPLE 12, 3-[6-(7-Methyl-4-oxo-4H-1,3-benzothiazin-2-yl)-4-(methylsulfonyl)pyridin-2-yl]propanoic acid]	1.6
–	203.4 to 203.6	COC(=O)CCc1cc(S(C)(=O)=O)cc(-c2nc(=O)c3ccc(Cl)cc3s2)n1 [EXAMPLE 17, Methyl 3-[6-(7-chloro-4-oxo-4H-1,3-benzothiazin-2-yl)-4-(methylsulfonyl)pyridin-2-yl]propanoate]	–
–	183.1 to 183.2	Cc1oc(=O)oc1COC(=O)CCc1cc(S(C)(=O)=O)cc(-c2nc(=O)c3ccc(Cl)cc3s2)n1 [compound 20, (5-Methyl-2-oxo-1,3-dioxolen-4-yl)methyl 3-[6-(7-chloro-4-oxo-4H-1,3-benzothiazin-2-yl)-4-(methylsulfonyl)pyridin-2-yl]propanoate]	–
–	240 to 241	CS(=O)(=O)c1cc(CCC(=O)OCC(O)CO)nc(-c2nc(=O)c3ccc(Cl)cc3s2)c1 (stereo not shown) [compound 21, 2,3-Dihydroxypropyl 3-[6-(7-chloro-4-oxo-4H-1,3-benzothiazin-2-yl)-4-(methylsulfonyl)pyridin-2-yl]propanoate]	–

— US20090029975A1, “1,3-BENZOTHIAZINONE DERIVATIVE AND USE THEREOF” (TAKEDA PHARMACEUTICAL COMPANY LIMITED, priority 2005, published 2009)
